Entries after “also recorded” stand apart in the source; their conditions may differ.
What was measured:
Type in all cases: in vivo, mouse
[1] = system: atrial natriuretic peptide (ANP); experiment: qRT-PCR of ANP mRNA in left ventricle after TAC/sham
Method: (§1) 11 to 13 week old male C57BL/6 mice were purchased from Charles River (Germany). Mice were housed in individually ventilated pathogen-free cages with free access to water and standard rodent chow. The animals were handled according to the principles of laboratory animal care (NIH publication No. 85-23, revised 1996), and animal procedures were approved by the local committee for animal care.
(§2) The first injection was performed 5 min prior to TAC or sham-operation procedure (described below) and repeated 4, 8, 12, 24, 36, 48 and 60 hrs after surgery. […]
(§3) Quantitative real-time PCR analysis was completed. […] RNA was dissolved in 100 μl of RNase-free water, and concentration was determined photometrically (absorbance at 260 nm) before storage at −80° C. […]
(§4) Real-time PCR was performed according to the manufacturer's protocol. […] Each sample was measured in triplicate wells and underwent 40 cycles of amplification on an ABI PRISM® Sequence Detection System (Applied Biosystems). CT values were determined with SDS Software 2.2 (Applied Biosystems) and relative quotients (RQ) were calculated following the ΔΔCT method (RQ target gene/GAPDH).
(§5) Statistics were calculated using Prism 4.05 (GraphPad Software Inc., CA, USA). All values are expressed as mean (M)±SEM. […]

[2] = system: matrix metalloproteinase-2 (MMP-2); experiment: qRT-PCR of MMP-2 mRNA in left ventricle after TAC/sham
Method: as §1, §2, §3, §4, §5

IL-6 [3] = experiment: qRT-PCR of IL-6 mRNA in left ventricle after TAC/sham
Method: as §1, §2, §3, §4, §5

IL-10 = experiment: qRT-PCR of IL-10 mRNA in left ventricle after TAC/sham; details: for IL-10 mRNA level: three days after surgery, qRT-PCR, M ± SEM
Method: as §1
The first injection was performed 5 min prior to TAC or sham-operation procedure (described below) and repeated 4, 8, 12, 24, 36, 48 and 60 hrs after surgery. Animals were randomly assigned into two groups, receiving either a tetrasodium salt of the compound of formula 1 (hereinafter “Eritoran tetrasodium”) or placebo. The catheter was flushed with 50 μl 0.9% NaCl before and 100 μl after each injection of 50 μl Eritoran tetrasodium (2.5 mg/ml vehicle; 5 mg/kg bodyweight/application; dosage adopted from Shimamoto et al., Circulation 2006, 114: 1270-1274) or placebo solution.
Treatment groups were separated into two subgroups, undergoing transverse aortic constriction (TAC) or sham operation. Surgery for TAC was achieved as published previously (see, e.g., Baumgarten et al., Circulation 2002, 105: 2192-2197 and Baumgarten et al., Basic Res Cardiol 2006, 101: 427-435). Mice were intubated in a supine position and mechanical ventilation was initiated (MiniVent 845, Hugo Sachs Elektronik, Germany). A left parasternal incision was performed. A suture was passed underneath the aorta and tied down on a 27 Gauge needle, which was immediately removed and allowed to achieve a standardised and previously validated decreased diameter of the aorta. For sham operation the suture was passed underneath the aorta without ligation. […]
as §3, §4
Statistics were calculated using Prism 4.05 (GraphPad Software Inc., CA, USA). All values are expressed as mean (M)±SEM. One-way ANOVA with Newman-Keuls post-hoc testing was performed for statistical analysis with the exception of TIMP and cytokine expression which were analysed with Kruskal-Wallis and Dunn's multiple comparison post-hoc testing Impact of TAC-Eritoran on IL-10 expression was analysed with Two-way ANOVA. […]

IL-1β = experiment: ELISA of IL-1β protein in myocardial tissue after TAC/sham
Method: as §1
(§6) The first injection was performed 5 min prior to TAC or sham-operation procedure (described below) and repeated 4, 8, 12, 24, 36, 48 and 60 hrs after surgery. Animals were randomly assigned into two groups, receiving either a tetrasodium salt of the compound of formula 1 (hereinafter “Eritoran tetrasodium”) or placebo. […]
(§7) For ELISA assays, proteins from snap-frozen myocardial tissue were isolated and cytosolic and nuclear proteins separated according to the manufacturer's protocol (NE-PER®, Nuclear and Cytoplasmic Extraction Kit, Pierce®, Thermo Scientific, IL, USA). Myocardial protein levels in the cytoplasmic fraction were detected with Quantikine mouse IL-1β as well as IL-6 ELISA (R&D Systems, […], USA) as described in the manufacturer's protocol. […] Protein concentration was determined by B CA protein assay (Pierce®).
as §5

IL-6 [4] = experiment: ELISA of IL-6 protein in myocardial tissue after TAC/sham
Method: as §1, §6, §7, §5

MMP-9 = experiment: Gelatine zymography of MMP activity in left ventricular tissue after TAC
Method: as §1
The first injection was performed 5 min prior to TAC or sham-operation procedure (described below) and repeated 4, 8, 12, 24, 36, 48 and 60 hrs after surgery. Animals were randomly assigned into two groups, receiving either a tetrasodium salt of the compound of formula 1 (hereinafter “Eritoran tetrasodium”) or placebo. The catheter was flushed with 50 μl 0.9% NaCl before and 100 μl after each injection of 50 μl Eritoran tetrasodium (2.5 mg/ml vehicle; 5 mg/kg bodyweight/application; dosage adopted from Shimamoto et al., Circulation 2006, 114: 1270-1274) or placebo solution. […]
For zymographic measurement of MMP activity, protein isolates from left ventricular tissue (60 μg protein content, isolated with NE-PER protein isolation kit; Pierce®) were mixed with 2× Tris-Glycine SDS sample buffer, and loaded on precast zymogram gels (SDS-PAGE; BioRad, Germany) containing […]. […] Areas of protease activity were detected as transparent bands against blue background. […]

[5] = Example 1, TAC, three days after surgery
[6] = Example 2, TAC treated vs TAC-placebo

SMILES | ANP mRNA expression ([1]; Example 1, TAC, vs TAC placebo, three days after surgery) | MMP-2 mRNA level ([2]; Example 1, TAC vs sham within treated groups, three days after surgery) | IL-6 mRNA level (IL-6 [3]; Example 1, TAC, three days after surgery, qRT-PCR, M ± SEM) | IL-10 mRNA level (IL-10; Example 1, TAC) [b] | elevation of IL-10 mRNA (IL-10; Example 1, in sham and TAC groups, p<0.05, Two-way Anova) | IL-10 mRNA level (IL-10; Example 1, sham operation) [b] | IL-1β protein expression (ELISA) (IL-1β; [5]) | IL-6 protein expression (ELISA) (IL-6 [4]; [5]) | MMP (MMP-9) zymographic activity (MMP-9; [5]) | ANP mRNA expression [1, 6] | MMP-2 mRNA expression [2, 6] | IL-6 mRNA expression (IL-6 [3]; [6]) | IL-10 mRNA expression (IL-10; [6]) | IL-1β protein expression (IL-1β; Example 2, TAC treated group) | IL-6 protein expression (IL-6 [4]; Example 2, TAC treated group) | MMP-9 zymographic activity (MMP-9; [6])
CCCCCC/C=C\CCCCCCCCCC(=O)N[C@H]1[C@H](OC[C@H]2O[C@H](OP(=O)([O-])[O-])[C@H](NC(=O)CC(=O)CCCCCCCCCCC)[C@@H](OCCCCCCCCCC)[C@@H]2O)O[C@H](COC)[C@@H](OP(=O)([O-])[O-])[C@@H]1OCC[C@@H](CCCCCCC)OC.[Na+].[Na+].[Na+].[Na+] [Eritoran tetrasodium] | markedly decreased BNP but not ANP expression | remained unchanged by aortic banding | 16.60 ± 7.55 | 4.71 ± 1.22 | three to four fold elevation | 3.81 ± 1.69 | did not display significant increases; also recorded: lower levels of pro-inflammatory cytokines compared to TAC placebo hearts (not significant) | did not display significant increases; also recorded: lower levels of pro-inflammatory cytokines compared to TAC placebo hearts (not significant) | attenuated; also recorded: reduced zymographic activity of MMP-9 | – | – | – | – | – | – | –
CCCCCC/C=C\CCCCCCCCCC(=O)N[C@H]1[C@H](OC[C@H]2O[C@H](OP(=O)(O)O)[C@H](NC(=O)CC(=O)CCCCCCCCCCC)[C@@H](OCCCCCCCCCC)[C@@H]2O)O[C@H](COC)[C@@H](OP(=O)(O)O)[C@@H]1OCC[C@@H](CCCCCCC)OC [compound of formula (I), α-D-Glucopyranose, 3-O-decyl-2-deoxy-6-O-[2-deoxy-3-O-[(3R)-3-methoxydecyl)-6-O-methyl-2-[[(−11Z)-1-oxo-11-octadecenyl)amino]-4-O-phosphono-β-D-glucopyranosyl]-2-[(1,3-dioxotetradecyl)amino]-1-(dihydrogen phosphate)] | – | – | – | – | – | – | – | – | – | elevated in TAC-placebo mice compared to sham and the TAC groups treated | higher in the TAC-placebo animals compared to the TAC groups treated | lower | increased | reduced | reduced | higher in the TAC-placebo animals compared to the TAC groups treated
